In brackets after ≈: the same amount, converted by molar mass.
Experiments:
Experiment in all cases: microbe, parasite or virus in culture
Format in all cases: cell-based
Francisella tularensis = conditions: for MIC: read-out: MIC range
[1] = test system: Burkholderia pseudomallei; conditions: Burkholderia pseudomallei; for MIC: read-out: MIC range
Yersinia pestis = conditions: for MIC: read-out: MIC range
Bacillus anthracis = conditions: for MIC: read-out: MIC range
Burkholderia mallei = conditions: for MIC: read-out: MIC range

| Compound | MIC50 (Francisella tularensis) [µg/mL] | MIC90 (Francisella tularensis) [µg/mL] | MIC (Francisella tularensis) [µg/mL] | MIC50 [1] [µg/mL] | MIC90 [1] [µg/mL] | MIC50 (Yersinia pestis) [µg/mL] | MIC90 (Yersinia pestis) [µg/mL] | MIC (Yersinia pestis) [µg/mL] | MIC50 (Bacillus anthracis) [µg/mL] | MIC90 (Bacillus anthracis) [µg/mL] | MIC (Bacillus anthracis) [µg/mL] | MIC50 (Burkholderia mallei) [µg/mL] | MIC90 (Burkholderia mallei) [µg/mL] | MIC (Burkholderia mallei) [µg/mL] | MIC [1] [µg/mL] |
| --- | --- | --- | --- | --- | --- | --- | --- | --- | --- | --- | --- | --- | --- | --- | --- |
| CCCN1[C@H](CCNC(C)=N)CCC[C@H]1c1ccc(-n2cc3cc(-c4cc(CCC[C@H](C)N)cc(Cl)c4F)[nH]c3nc2=O)cc1 [RX-D5] | 0.06 (≈ 0.0946 µM) | 0.12 (≈ 0.189 µM) | 0.004 to 1 (≈ 0.00631 to 1.58 µM) | 4 (≈ 6.31 µM) | 8 (≈ 12.6 µM) | 0.12 (≈ 0.189 µM) | 0.25 (≈ 0.394 µM) | 0.03 to 0.5 (≈ 0.0473 to 0.788 µM) | 0.06 (≈ 0.0946 µM) | 0.06 (≈ 0.0946 µM) | 0.015 to 0.12 (≈ 0.0237 to 0.189 µM) | 0.06 (≈ 0.0946 µM) | 0.12 (≈ 0.189 µM) | 0.03 to 0.12 (≈ 0.0473 to 0.189 µM) |  |
| C[C@H](N)CCCc1cc(Cl)c(F)c(-c2cc3cn(-c4ccc([C@@H]5CCC[C@@H](CCNC(=N)CN)N5)cc4)c(=O)nc3[nH]2)c1 [RX-D6] | 0.06 (≈ 0.0988 µM) | 0.25 (≈ 0.412 µM) | 0.03 to 0.5 (≈ 0.0494 to 0.823 µM) | > 8 | > 8 | 0.5 (≈ 0.823 µM) | 1 (≈ 1.65 µM) | 0.015 to 1 (≈ 0.0247 to 1.65 µM) | 0.12 (≈ 0.198 µM) | 0.25 (≈ 0.412 µM) | 0.06 to 0.25 (≈ 0.0988 to 0.412 µM) | 0.12 (≈ 0.198 µM) | 0.25 (≈ 0.412 µM) | 0.12 to 0.25 (≈ 0.198 to 0.412 µM) |  |
| C=C[C@H](N)CCCc1cc(Cl)c(F)c(-c2cc3cn(-c4ccc([C@@H]5CCC[C@@H](CCNC(C)=N)N5)c(SC)c4)c(=O)nc3[nH]2)c1 [RX-D7] | 0.12 (≈ 0.185 µM) | 0.25 (≈ 0.384 µM) | 0.06 to 0.5 (≈ 0.0923 to 0.769 µM) | 4 (≈ 6.15 µM) | 8 (≈ 12.3 µM) | 0.25 (≈ 0.384 µM) | 0.5 (≈ 0.769 µM) | 0.03 to 1 (≈ 0.0461 to 1.54 µM) | ≤ 0.008 | 0.03 (≈ 0.0461 µM) | 0.008 to 0.06 (≈ 0.0123 to 0.0923 µM) | 0.25 (≈ 0.384 µM) | 0.25 (≈ 0.384 µM) | 0.06 to 0.5 (≈ 0.0923 to 0.769 µM) |  |
| CC(=N)NCC[C@@H]1CCC[C@@H](c2ccc(-n3cc4cc(-c5cc(CCC[C@H](C)N)cc(Cl)c5F)[nH]c4nc3=O)cc2C)N1 [RX-D8] | 0.03 (≈ 0.0495 µM) | 0.06 (≈ 0.099 µM) | 0.004 to 0.12 (≈ 0.0066 to 0.198 µM) | 8 (≈ 13.2 µM) | > 8 | 0.25 (≈ 0.412 µM) | 0.5 (≈ 0.825 µM) | 0.06 to 0.5 (≈ 0.099 to 0.825 µM) | ≤ 0.008 | ≤ 0.008 | 0.008 to 0.015 (≈ 0.0132 to 0.0247 µM) | 0.06 (≈ 0.099 µM) | 0.12 (≈ 0.198 µM) | 0.03 to 0.25 (≈ 0.0495 to 0.412 µM) |  |
| CC(=N)NCC[C@@H]1CSC[C@@H](c2ccc(-n3cc4cc(-c5cc(CCC[C@H](C)N)cc(Cl)c5F)[nH]c4nc3=O)cc2)N1 [RX-D9] | 0.12 (≈ 0.197 µM) | 0.25 (≈ 0.41 µM) | 0.03 to 2 (≈ 0.0492 to 3.28 µM) | 2 (≈ 3.28 µM) | 4 (≈ 6.56 µM) | 0.12 (≈ 0.197 µM) | 0.25 (≈ 0.41 µM) | 0.06 to 0.5 (≈ 0.0983 to 0.819 µM) | 0.06 (≈ 0.0983 µM) | 0.12 (≈ 0.197 µM) | 0.008 to 0.12 (≈ 0.0131 to 0.197 µM) | 0.12 (≈ 0.197 µM) | 0.25 (≈ 0.41 µM) | 0.03 to 0.5 (≈ 0.0492 to 0.819 µM) | 0.5 to 4 (≈ 0.819 to 6.56 µM) |
| C=CCN1[C@H](CCNC(C)=N)CCC[C@H]1c1ccc(-n2cc3cc(-c4cc(CCC[C@H](C)N)cc(Cl)c4F)[nH]c3nc2=O)cc1 [RX-D10] | 0.12 (≈ 0.19 µM) | 0.5 (≈ 0.791 µM) | 0.03 to 2 (≈ 0.0475 to 3.16 µM) | 2 (≈ 3.16 µM) | 4 (≈ 6.33 µM) | 0.12 (≈ 0.19 µM) | 0.5 (≈ 0.791 µM) | 0.03 to 0.5 (≈ 0.0475 to 0.791 µM) | 0.12 (≈ 0.19 µM) | 0.25 (≈ 0.395 µM) | 0.008 to 0.25 (≈ 0.0127 to 0.395 µM) | 0.12 (≈ 0.19 µM) | 0.25 (≈ 0.395 µM) | 0.06 to 0.25 (≈ 0.0949 to 0.395 µM) | 0.25 to 8 (≈ 0.395 to 12.7 µM) |
| C[C@H](N)CCCc1cc(Cl)c(F)c(-c2cc3cn(-c4ccc([C@@H]5CCC[C@@H](CCSC(=N)N)N5)c(F)c4)c(=O)nc3[nH]2)c1 [RX-D11] | 0.06 (≈ 0.0955 µM) | 0.12 (≈ 0.191 µM) | 0.008 to 1 (≈ 0.0127 to 1.59 µM) | 1 (≈ 1.59 µM) | 2 (≈ 3.18 µM) | 0.12 (≈ 0.191 µM) | 0.25 (≈ 0.398 µM) | 0.004 to 0.25 (≈ 0.00637 to 0.398 µM) | 0.12 (≈ 0.191 µM) | 0.25 (≈ 0.398 µM) | 0.008 to 0.5 (≈ 0.0127 to 0.796 µM) | 0.06 (≈ 0.0955 µM) | 0.12 (≈ 0.191 µM) | 0.03 to 0.25 (≈ 0.0478 to 0.398 µM) | 0.25 to 8 (≈ 0.398 to 12.7 µM) |
| C[C@H](N)CCCc1cc(Cl)c(F)c(-c2cc3cn(-c4ccc([C@H]5CC[C@H](CCNC(=N)N)N5)cc4)c(=O)nc3[nH]2)c1 [RX-D13] | 0.015 (≈ 0.0259 µM) | 0.06 (≈ 0.104 µM) | 0.004 to 0.12 (≈ 0.00691 to 0.207 µM) | 1 (≈ 1.73 µM) | 4 (≈ 6.91 µM) | 0.06 (≈ 0.104 µM) | 0.25 (≈ 0.432 µM) | 0.03 to 0.25 (≈ 0.0518 to 0.432 µM) | 0.06 (≈ 0.104 µM) | 0.06 (≈ 0.104 µM) | 0.008 to 0.12 (≈ 0.0138 to 0.207 µM) | 0.06 (≈ 0.104 µM) | 0.12 (≈ 0.207 µM) | 0.008 to 0.12 (≈ 0.0138 to 0.207 µM) | 0.25 to 8 (≈ 0.432 to 13.8 µM) |

Source: patent publication US12152031B2, “Biodefense agents” (priority 2018, dated 2024)
